According to patent US20260200890A1, “ADAR1 INHIBITORS AND METHODS OF USING THE SAME” (AVAMMUNE THERAPEUTICS INC., priority 2022, published 2026):
pEC50: −log10 of the molar value.

Target: T1, ADAR1 (Homo sapiens, UniProt P55265)
T1 construct: endogenous in cells; host or cells: p110 KO A549 dual cells
T1 sequence (P55265 1-1226): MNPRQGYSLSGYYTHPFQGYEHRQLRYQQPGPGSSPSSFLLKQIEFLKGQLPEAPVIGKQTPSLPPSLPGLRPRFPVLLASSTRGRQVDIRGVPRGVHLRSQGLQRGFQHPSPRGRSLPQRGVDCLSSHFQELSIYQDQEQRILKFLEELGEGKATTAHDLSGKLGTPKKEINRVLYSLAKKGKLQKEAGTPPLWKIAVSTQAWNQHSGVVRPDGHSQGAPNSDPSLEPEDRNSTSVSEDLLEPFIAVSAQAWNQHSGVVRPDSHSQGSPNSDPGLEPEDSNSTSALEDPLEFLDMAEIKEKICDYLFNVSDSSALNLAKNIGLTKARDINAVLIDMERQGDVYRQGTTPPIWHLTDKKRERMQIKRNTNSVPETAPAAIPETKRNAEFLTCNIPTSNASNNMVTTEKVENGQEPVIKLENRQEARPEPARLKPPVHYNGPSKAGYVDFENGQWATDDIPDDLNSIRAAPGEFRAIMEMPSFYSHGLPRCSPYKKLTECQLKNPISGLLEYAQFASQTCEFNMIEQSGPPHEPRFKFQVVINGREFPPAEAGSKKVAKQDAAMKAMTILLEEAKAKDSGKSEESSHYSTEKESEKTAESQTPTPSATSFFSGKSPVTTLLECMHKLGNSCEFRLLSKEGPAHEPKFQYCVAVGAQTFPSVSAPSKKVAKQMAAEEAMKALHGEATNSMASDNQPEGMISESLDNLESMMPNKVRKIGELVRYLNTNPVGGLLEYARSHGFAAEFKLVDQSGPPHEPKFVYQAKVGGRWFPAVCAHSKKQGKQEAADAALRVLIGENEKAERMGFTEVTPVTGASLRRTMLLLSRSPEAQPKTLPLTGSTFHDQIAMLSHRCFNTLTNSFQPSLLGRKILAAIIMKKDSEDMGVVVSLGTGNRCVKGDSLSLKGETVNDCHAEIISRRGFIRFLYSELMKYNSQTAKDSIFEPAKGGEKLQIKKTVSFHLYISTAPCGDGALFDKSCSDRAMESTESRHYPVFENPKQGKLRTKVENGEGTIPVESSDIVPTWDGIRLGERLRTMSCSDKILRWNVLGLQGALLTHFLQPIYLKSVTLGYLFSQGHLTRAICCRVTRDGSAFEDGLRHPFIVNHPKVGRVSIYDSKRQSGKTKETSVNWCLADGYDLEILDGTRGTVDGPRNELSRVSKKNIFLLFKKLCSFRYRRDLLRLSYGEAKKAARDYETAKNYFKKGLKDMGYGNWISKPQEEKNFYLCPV
Assay: ADAR1 Inhibition Assay (IFN fold-induction, Quanti-Luc luminescence, p110 KO A549 dual cells)
Format: cell-based
Settings: IFN fold-induction vs DMSO, 24 and 48 h
Experimental: An ADAR1 Inhibition Assay was used to determine the biological activity (EC50) of compounds disclosed herein. 100 μL of p110 KO A549 dual cell suspension in supplemented DMEM (20,000 cells per well) was added into a flat bottom 96 well plate. Next day, post media change, 180 μL of supplemented DMEM was added. 20 μL of test compound or positive control was added to the respective wells (Final concentration of DMSO is 1%). The plate was incubated for 24 and 48 hours at 37° C. in a 5% CO2 incubator. After 24 and 48 h, 20 μL of cell suspension was taken in black well plates and 50 μL of Quanti-Luc was added to each well and luminescence was measured using a microplate reader (Spectra Max). IFN fold-induction was plotted considering DMSO as control using the relative luminescence unit (RLU) values. (Fold induction: Sample RLU/Average DMSO RLU).

SMILES | pEC50
CCOC(=O)c1cc(-c2cccc(OC)c2)sc1NC(=O)COC(=O)c1cccc(NS(C)(=O)=O)c1 [Compound 211] | < 4.00
CCOC(=O)c1cc(-c2ccccc2)sc1S(=O)(=O)N1CCN(S(C)(=O)=O)CC1 [Compound 307] | < 4.00
CCOc1nc(NC(=O)COC(=O)c2cccc(NS(C)(=O)=O)c2)ncc1-c1ccccc1 [Compound 235] | < 4.00
CCOC(=O)c1cc(-c2ccccc2)sc1NC(=O)COC(=O)c1cccc(S(=O)(=O)NC(C)(C)C)c1 [Compound 379] | < 4.00
CCOC(=O)c1cc(-c2ccccc2)sc1NC(=O)C1CCN(C(=O)c2cccc(S(N)(=O)=O)c2)C1 (centres unmarked) [Compound 425] | < 4.00
COC(=O)c1cc(-c2ccncc2)sc1NC(=O)c1cccc(S(N)(=O)=O)c1 [Compound 33] | < 4.00
CCOC(=O)c1cc(-c2ccccc2)sc1NC(=O)NNC(=O)c1cccc(NS(C)(=O)=O)c1 [Compound 262] | < 4.00
CCOC(=O)c1cc(-c2ccccc2)sc1NC(=O)[C@H]1CCCN1C(=O)c1cccc(P(=O)(OCC)OCC)c1 [Compound 394] | < 4.00
CCNC(=O)c1cc(-c2ccccc2)sc1NC(=O)CNC(=O)c1cccc(NS(C)(=O)=O)c1 [Compound 410] | 4.00 to 4.30
CCOC(=O)c1cc(-c2ccccc2)[nH]c1NC(=O)CNC(=O)c1cccc(P(=O)(OCC)OCC)c1 [Compound 408] | 4.00 to 4.30
CCOC(=O)c1cc(-c2ccccc2)sc1NC(=O)c1ccc(-c2cccc(NS(C)(=O)=O)c2)o1 [Compound 268] | < 4.00
CCOC(=O)c1cc(-c2ccccc2)sc1NC(=O)C1CCN(C(=O)Cc2cccc(NS(C)(=O)=O)c2)C1 (centres unmarked) [Compound 333] | 4.00 to 4.30
CCOC(=O)c1cc(-c2ccccc2)sc1NC(=O)[C@H]1CCN(C(=O)c2cccc(NS(C)(=O)=O)c2)C1 [Compound 157] | < 4.00
CS(=O)(=O)Nc1cccc(C(=O)OCCNC(=O)c2csc(-c3ccccc3)c2)c1 [Compound 271] | < 4.00
CCOC(=O)c1cc(-c2ccccc2)sc1NC(=O)CNC(=O)c1cccc(S(=O)(=O)N2CCNCC2)c1 [Compound 47] | < 4.00
CCOC(=O)c1c(NC(=O)COC(=O)c2cccc(NS(C)(=O)=O)c2)sc(-c2ccccc2)c1C [Compound 190] | < 4.00
CCOC(=O)c1cc(-c2ccccc2)sc1NC(=O)COC1CCN(C(=O)c2cccc(NS(C)(=O)=O)c2)CC1 [Compound 208] | < 4.00
CCOC(=O)c1cc(-c2ccccc2)sc1NC(=O)CNC(=O)c1cccc(S(=O)(=O)N2CCOCC2)c1 [Compound 28] | < 4.00
CCOC(=O)c1cc(-c2ccccc2)sc1NC(=O)COC(c1cccc(NS(C)(=O)=O)c1)C(F)(F)F (centres unmarked) [Compound 250] | < 4.00
CCOC(=O)c1cc(-c2ccccc2)sc1NC(=O)OCc1nnc(-c2cccc(NS(C)(=O)=O)c2)o1 [Compound 290] | < 4.00

Further lines, results first:

pEC50 | SMILES
< 4.00 | CCOC(=O)c1cc(-c2ccccc2)sc1NC(=O)CN1C(=O)COc2ccc(NS(C)(=O)=O)cc21 [Compound 291]
< 4.00 | CCOC(=O)c1cc(-c2ccccc2)sc1NC(=O)COC(=O)c1cccc(S(C)(=O)=O)c1 [Compound 65]
< 4.00 | CCOC(=O)c1cc(-c2ccccc2)sc1NC(=O)Cn1cc(CSc2cccc(NS(C)(=O)=O)c2)nn1 [Compound 360]
< 4.00 | CCOC(=O)c1cc(-c2ccccc2)sc1NC(=O)CS(=O)(=O)c1cccc(NS(C)(=O)=O)c1 [Compound 297]
< 4.00 | CCOC(=O)c1cc(-c2ccccc2)sc1NC(=O)COC(C)c1cccc(NS(C)(=O)=O)c1 (centres unmarked) [Compound 240]
< 4.00 | CCOC(=O)c1cc(-c2ccccc2)sc1NC(=O)CNC(=O)c1ccc2ccn(S(C)(=O)=O)c2c1 [Compound 339]
< 4.00 | CCOC(=O)c1cc(-c2ccccc2)sc1NC(=O)CN1C(=O)c2ccc(NS(C)(=O)=O)cc2C1=O [Compound 234]
< 4.00 | CCOC(=O)c1cc(-c2ccccc2)sc1NC(=O)CN1C(=O)CN(S(C)(=O)=O)C1=O [Compound 239]
< 4.00 | CCOC(=O)c1cc(-c2ccccc2)sc1NC(=O)Cn1cnc2cnc(N)nc21 [Compound 215]
